Tests used:
[1] = target: T1, Heat shock protein HSP 90-alpha (Homo sapiens, UniProt P07900); test: Dissociation rate from HSP90A (unknown origin) by surface plasmon resonance method
[2] = target: T2, [Pyruvate dehydrogenase (acetyl-transferring)] kinase isozyme 1, mitochondrial (Homo sapiens, UniProt Q15118); test: Inhibition of fluorescein-labelled VER160364 binding to PDHK1 (unknown origin) after 90 mins by fluorescence polarization assay
[3] = target: T2, [Pyruvate dehydrogenase (acetyl-transferring)] kinase isozyme 1, mitochondrial; test: Binding affinity to PDHK1 (unknown origin) by surface plasmon resonance method
[4] = target: T1, Heat shock protein HSP 90-alpha; test: Displacement of fluorescein-labelled VER160364 from HSP90A (unknown origin) after 90 mins by fluorescence polarization assay
[5] = target: T2, [Pyruvate dehydrogenase (acetyl-transferring)] kinase isozyme 1, mitochondrial; test: Inhibition of PDHK1 in human PC3 cells assessed as decrease in phosphorylation of E1alpha subunit at serine 293 residue after 1 hr by ELISA; type: cell-based
[6] = target: T2, [Pyruvate dehydrogenase (acetyl-transferring)] kinase isozyme 1, mitochondrial; test: Inhibition of PDHK1 (unknown origin) assessed as decrease in phosphorylation of E1alpha subunit at serine 293 residue after 1 hr by DELFIA
[7] = target: T2, [Pyruvate dehydrogenase (acetyl-transferring)] kinase isozyme 1, mitochondrial; test: Binding affinity to PDHK1 (unknown origin) by isothermal titration calorimetry
PC-3 = test: Antiproliferative activity against human PC3 cells after 96 hrs by sulphorhodamine B assay; type: functional; settings: PC-3, 96 h
[8] = target: [Pyruvate dehydrogenase (acetyl-transferring)] kinase isozyme 2, mitochondrial (Homo sapiens, UniProt Q15119); test: Inhibition of fluorescein-labelled VER160364 binding to PDHK2 (unknown origin) after 90 mins by fluorescence polarization assay
[9] = Inhibition of PDHK (unknown origin); design: species or system Homo sapiens
[10] = target: T2, [Pyruvate dehydrogenase (acetyl-transferring)] kinase isozyme 1, mitochondrial; test: Inhibition of SUMO-tagged PDHK1 (unknown origin) in presence of [gamma-32P]ATP after 30 mins by SDS-PAGE based phosphor imaging method
[11] = target: T1, Heat shock protein HSP 90-alpha; test: Displacement of fluorescein-labelled VER160364 from HSP90A (unknown origin) at 200 uM after 90 mins by fluorescence polarization assay relative to control
[12] = target: T3, [Pyruvate dehydrogenase (acetyl-transferring)] kinase isozyme 4, mitochondrial (Homo sapiens, UniProt Q16654)
Description: Inhibition of PDHK4 (unknown origin) assessed as decrease in phosphorylation of E1alpha subunit at serine 293 residue after 1 hr by DELFIA

[13] = target: [Pyruvate dehydrogenase (acetyl-transferring)] kinase isozyme 3, mitochondrial (Homo sapiens, UniProt Q15120); test: Inhibition of fluorescein-labelled VER160364 binding to PDHK3 (unknown origin) after 90 mins by fluorescence polarization assay
[14] = target: T3, [Pyruvate dehydrogenase (acetyl-transferring)] kinase isozyme 4, mitochondrial; test: Inhibition of fluorescein-labelled VER160364 binding to PDHK4 (unknown origin) after 90 mins by fluorescence polarization assay

T2 sequence (Q15118 whole entry): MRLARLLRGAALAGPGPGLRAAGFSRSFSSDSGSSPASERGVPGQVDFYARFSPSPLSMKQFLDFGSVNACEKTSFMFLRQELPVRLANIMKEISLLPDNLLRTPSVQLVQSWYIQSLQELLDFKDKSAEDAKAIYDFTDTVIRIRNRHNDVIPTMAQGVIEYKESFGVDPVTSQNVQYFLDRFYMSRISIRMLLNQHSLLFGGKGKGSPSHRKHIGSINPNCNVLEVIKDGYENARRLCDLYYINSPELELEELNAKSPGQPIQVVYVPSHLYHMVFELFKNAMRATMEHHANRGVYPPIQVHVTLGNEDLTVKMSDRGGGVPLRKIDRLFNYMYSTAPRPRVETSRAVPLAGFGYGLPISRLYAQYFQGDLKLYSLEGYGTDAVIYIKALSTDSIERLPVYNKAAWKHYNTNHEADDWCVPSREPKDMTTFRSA
T3 sequence (Q16654 whole entry): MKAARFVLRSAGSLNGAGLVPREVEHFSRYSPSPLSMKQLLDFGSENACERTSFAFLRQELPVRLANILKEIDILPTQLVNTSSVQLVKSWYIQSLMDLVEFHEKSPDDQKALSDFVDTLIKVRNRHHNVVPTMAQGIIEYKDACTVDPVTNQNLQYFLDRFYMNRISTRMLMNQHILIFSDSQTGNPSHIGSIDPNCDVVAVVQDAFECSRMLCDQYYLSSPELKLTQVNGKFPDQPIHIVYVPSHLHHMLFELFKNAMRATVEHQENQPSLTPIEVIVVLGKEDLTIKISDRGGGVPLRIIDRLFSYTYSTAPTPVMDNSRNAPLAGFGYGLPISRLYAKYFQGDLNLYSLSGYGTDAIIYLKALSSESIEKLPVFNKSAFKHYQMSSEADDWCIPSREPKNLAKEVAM
Chain of [Pyruvate dehydrogenase (acetyl-transferring)] kinase isozyme 3, mitochondrial (Q15120 whole entry): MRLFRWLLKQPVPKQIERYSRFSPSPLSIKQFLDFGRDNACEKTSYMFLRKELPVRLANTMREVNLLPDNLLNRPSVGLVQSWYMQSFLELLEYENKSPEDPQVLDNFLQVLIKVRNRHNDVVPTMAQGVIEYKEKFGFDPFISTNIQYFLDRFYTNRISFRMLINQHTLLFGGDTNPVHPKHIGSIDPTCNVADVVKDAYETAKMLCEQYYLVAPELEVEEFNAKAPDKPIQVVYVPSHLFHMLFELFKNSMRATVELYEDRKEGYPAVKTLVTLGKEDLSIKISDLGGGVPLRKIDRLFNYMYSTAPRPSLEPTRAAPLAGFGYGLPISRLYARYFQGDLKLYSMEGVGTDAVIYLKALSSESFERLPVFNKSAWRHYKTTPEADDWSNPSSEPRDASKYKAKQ

| SMILES | Ki [2] | Ki [4] | IC50 [5] | Kd [3] | IC50 [6] | also measured |
| --- | --- | --- | --- | --- | --- | --- |
| CCNC(=O)c1noc(-c2cc(Cl)c(O)cc2O)c1-c1ccc(CN2CCOCC2)cc1C | 0.136 µM | 0.032 µM |  |  |  | koff [1]: 0.001 s⁻¹; koff [3]: 0.014 s⁻¹ |
| Cc1cc2ccccc2nc1-c1ccc2c(c1)CC[C@H](C)N2C(=O)c1ccc(O)cc1O | 0.124 µM | 10.6 µM | 2.68 µM | 0.115 µM | 0.139 µM | Kd [7]: 0.153 µM; GI50 (PC-3): 14 µM |
| CN(C(=O)c1ccc(O)cc1O)c1ccc(C(=O)N2CC(C(=O)O)Oc3ccccc32)cc1 (configuration not stated) | 0.26 µM | 0.184 µM |  |  |  |  |
| C[C@H]1CCc2cc(-c3nc(Cl)nc4[nH]ccc34)ccc2N1C(=O)c1ccc(O)cc1O | 0.64 µM | > 50 µM | 1.82 µM | 0.009 µM | 0.135 µM | GI50 (PC-3): 15 µM |
| COc1cc2c(cc1OC)C(c1cccnc1)N(C(=O)c1ccc(O)cc1O)CC2 (configuration not stated) |  |  |  |  |  | koff [1]: 0.29 s⁻¹; koff [3]: 0.019 s⁻¹ |
| O=C(c1ccc(O)cc1O)N(Cc1ccccc1)c1ccccc1 | 0.98 µM |  |  |  |  | koff [1]: 0.14 s⁻¹; koff [3]: 0.26 s⁻¹ |
| Cc1cnc(Cl)nc1-c1ccc(N(Cc2ccc(CN3CCCC3)cc2)C(=O)c2ccc(O)cc2O)cc1 | 0.037 µM | 3.21 µM | 2.15 µM | 0.078 µM | 0.101 µM | GI50 (PC-3): 38 µM |
| Cc1cnc(Cl)nc1-c1ccc2c(c1)CC[C@H](c1cccnc1)N2C(=O)c1ccc(O)cc1O |  | > 50 µM | 5.77 µM | 0.01 µM | 0.015 µM |  |
| CN(C)C(=O)c1ccc(N(C)C(=O)c2ccc(O)cc2O)cc1 |  | 1.23 µM |  |  |  | IC50 [8]: 0.35 µM; Ki [8]: 0.15 µM; IC50 [4]: 2.97 µM |
| C[C@@H]1C[C@H]2O[C@@H]2/C=C\C=C\C(=O)Cc2c(Cl)c(O)cc(O)c2C(=O)O1 [RADICICOL] |  |  |  |  |  | IC50 [9]: 1200 µM; IC50 [10]: 230 µM |
| COc1ccc(CN(C)C(=O)c2ccc(N(Cc3ccccc3)C(=O)c3ccc(O)cc3O)cc2)cc1 | 0.241 µM | > 50 µM | 10.6 µM | 0.01 µM | 0.201 µM |  |
| C[C@H]1CCc2cc(-c3nc(Cl)nc4ccsc34)ccc2N1C(=O)c1ccc(O)cc1O | 0.467 µM | 1.78 µM | 2.78 µM | 0.01 µM | 0.198 µM |  |
| Cc1cnc(Cl)nc1-c1ccc(N(Cc2ccccc2)C(=O)c2ccc(O)cc2O)cc1 | 0.067 µM | 6.55 µM | 1.72 µM | 0.016 µM | 0.072 µM | Kd [7]: 0.06 µM; GI50 (PC-3): > 40 µM |
| C[C@@H]1CN(C(=O)[C@@](C)(O)C(F)(F)F)[C@@H](C)CN1C(=O)c1ccc(C#N)cc1 |  |  | 0.066 µM |  |  |  |
| CCN(CC)CCN(C(=O)c1ccc(O)cc1O)c1ccc(OC)cc1 |  |  |  |  |  | IC50 [8]: 2.78 µM; Ki [8]: 1.33 µM; inhibition [11]: 79% |
| CN(Cc1ccc2nccnc2c1)C(=O)c1ccc(N(Cc2ccccc2)C(=O)c2ccc(O)cc2O)cc1 | 0.026 µM | 1.02 µM | 5.65 µM | 0.001 µM | 0.0627 µM |  |
| C[C@H]1CCc2cc(F)ccc2N1C(=O)c1ccc(O)cc1O | 0.09 µM | 3.48 µM |  |  |  | koff [1]: 0.18 s⁻¹; koff [3]: 0.08 s⁻¹ |
| C[C@@H]1CCc2cc(F)ccc2N1C(=O)c1ccc(O)cc1O | 1.17 µM |  |  |  |  | koff [1]: 0.6 s⁻¹; koff [3]: 0.27 s⁻¹; inhibition [11]: 62% |
| CCNC(=O)CN(C(=O)c1ccc(O)cc1O)c1ccc(OC)cc1 |  |  |  |  |  | IC50 [8]: 4.46 µM; Ki [8]: 2.17 µM; inhibition [11]: 74% |
| O=S(=O)(c1ccc(O)cc1O)N1Cc2cc(O)cc(O)c2C1 |  |  |  |  | 2.1 µM | IC50 [12]: 0.84 µM; IC50 [4]: 47 µM |
| Cc1cnc(Cl)nc1-c1ccc(N(Cc2ccc(CNC(=O)C(F)F)cc2)C(=O)c2ccc(O)cc2O)cc1 |  | > 100 µM |  |  |  | GI50 (PC-3): 26.2 µM |
| CC1CCc2cc(F)ccc2N1C(=O)c1ccc(O)cc1O (racemic) | 0.2 µM | 9.15 µM |  |  |  | koff [1]: 0.23 s⁻¹; koff [3]: 0.08 s⁻¹ |
| Cc1cnc(Cl)nc1-c1ccc2c(c1)CC[C@H](C)N2C(=O)c1ccc(O)cc1O | 0.037 µM | 1.98 µM | 2.74 µM | 0.019 µM | 0.063 µM | Kd [7]: 0.032 µM; GI50 (PC-3): 40 µM |
| C[C@H]1CCc2cc(C(=O)N(C)Cc3ccc4nccnc4c3)ccc2N1C(=O)c1ccc(O)cc1O | 0.016 µM | 2.51 µM | 3.01 µM | 0.006 µM | 0.036 µM | GI50 (PC-3): 30 µM |
| COc1ccc(N(C)C(=O)c2ccc(O)cc2O)cc1 | 1.93 µM | 1.38 µM |  |  |  | IC50 [8]: 2.23 µM; Ki [8]: 1.07 µM; Ki [13]: 0.55 µM; IC50 [4]: 3.02 µM; Ki [14]: 1.27 µM |
| CN(C)C(=O)c1ccc(S(=O)(=O)c2ccc(NC(=O)[C@@](C)(O)C(F)(F)F)c(Cl)c2)cc1 |  |  | 0.041 µM |  |  |  |
